Source: ChEMBL document CHEMBL1129213, “Synthesis and structure-activity relationships of potent conformationally restricted retinoid X receptor ligands” (Bioorg Med Chem Lett, 1997)

Experiments:
[1] = biological target: T1, Retinoic acid receptor RXR-gamma (Homo sapiens, UniProt P48443); experiment: Inhibition of [3H]9-cis-RA binding to RXR gamma receptor
T1 sequence (P48443 whole entry): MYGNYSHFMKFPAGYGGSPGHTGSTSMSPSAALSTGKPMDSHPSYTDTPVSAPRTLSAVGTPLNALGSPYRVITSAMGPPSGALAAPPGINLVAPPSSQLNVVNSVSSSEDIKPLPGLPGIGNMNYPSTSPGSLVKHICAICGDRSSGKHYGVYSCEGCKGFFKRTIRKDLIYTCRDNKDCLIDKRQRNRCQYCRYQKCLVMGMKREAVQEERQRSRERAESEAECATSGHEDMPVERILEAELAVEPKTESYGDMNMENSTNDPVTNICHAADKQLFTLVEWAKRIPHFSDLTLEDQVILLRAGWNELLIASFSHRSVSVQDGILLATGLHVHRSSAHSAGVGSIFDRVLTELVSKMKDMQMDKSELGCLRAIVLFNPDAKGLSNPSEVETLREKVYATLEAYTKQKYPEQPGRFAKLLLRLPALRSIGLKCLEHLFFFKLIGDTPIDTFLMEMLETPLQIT

[2] = biological target: T2, Retinoic acid receptor gamma (Homo sapiens, UniProt P13631); experiment: Transcriptional activation in CV-1 cells expressing retinoic acid receptor RAR gamma; format: functional, cell-based
T2 sequence (P13631 whole entry): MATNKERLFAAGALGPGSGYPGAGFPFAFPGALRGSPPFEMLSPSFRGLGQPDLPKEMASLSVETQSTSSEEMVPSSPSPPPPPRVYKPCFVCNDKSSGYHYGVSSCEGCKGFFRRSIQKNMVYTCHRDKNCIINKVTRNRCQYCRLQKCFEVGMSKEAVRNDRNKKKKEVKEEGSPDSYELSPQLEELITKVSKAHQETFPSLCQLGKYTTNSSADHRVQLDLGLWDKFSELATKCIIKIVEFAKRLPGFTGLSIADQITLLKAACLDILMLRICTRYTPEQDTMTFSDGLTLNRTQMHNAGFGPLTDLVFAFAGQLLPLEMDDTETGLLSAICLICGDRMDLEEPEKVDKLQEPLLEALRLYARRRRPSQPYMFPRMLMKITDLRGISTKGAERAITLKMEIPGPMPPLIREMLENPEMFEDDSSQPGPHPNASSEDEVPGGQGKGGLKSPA

[3] = biological target: T3, Retinoic acid receptor alpha (Homo sapiens, UniProt P10276); experiment: Inhibition of [3H]ATRA binding to RAR alpha receptor
T3 sequence (P10276 whole entry): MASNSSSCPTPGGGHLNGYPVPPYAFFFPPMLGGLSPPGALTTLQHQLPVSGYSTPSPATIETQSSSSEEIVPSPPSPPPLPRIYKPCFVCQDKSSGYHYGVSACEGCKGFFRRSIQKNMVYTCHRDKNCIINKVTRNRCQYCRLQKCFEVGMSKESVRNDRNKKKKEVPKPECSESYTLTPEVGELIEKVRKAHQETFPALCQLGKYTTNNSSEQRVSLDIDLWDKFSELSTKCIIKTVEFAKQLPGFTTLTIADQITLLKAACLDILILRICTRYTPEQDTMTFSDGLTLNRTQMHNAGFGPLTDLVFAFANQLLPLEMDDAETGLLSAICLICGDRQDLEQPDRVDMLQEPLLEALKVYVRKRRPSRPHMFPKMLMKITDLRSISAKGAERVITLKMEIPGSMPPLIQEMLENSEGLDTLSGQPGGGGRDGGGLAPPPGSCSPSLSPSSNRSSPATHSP

[4] = biological target: T4, Retinoic acid receptor RXR-beta (Homo sapiens, UniProt P28702); experiment: Inhibition of [3H]9-cis-RA binding to RXR beta receptor
T4 sequence (P28702 whole entry): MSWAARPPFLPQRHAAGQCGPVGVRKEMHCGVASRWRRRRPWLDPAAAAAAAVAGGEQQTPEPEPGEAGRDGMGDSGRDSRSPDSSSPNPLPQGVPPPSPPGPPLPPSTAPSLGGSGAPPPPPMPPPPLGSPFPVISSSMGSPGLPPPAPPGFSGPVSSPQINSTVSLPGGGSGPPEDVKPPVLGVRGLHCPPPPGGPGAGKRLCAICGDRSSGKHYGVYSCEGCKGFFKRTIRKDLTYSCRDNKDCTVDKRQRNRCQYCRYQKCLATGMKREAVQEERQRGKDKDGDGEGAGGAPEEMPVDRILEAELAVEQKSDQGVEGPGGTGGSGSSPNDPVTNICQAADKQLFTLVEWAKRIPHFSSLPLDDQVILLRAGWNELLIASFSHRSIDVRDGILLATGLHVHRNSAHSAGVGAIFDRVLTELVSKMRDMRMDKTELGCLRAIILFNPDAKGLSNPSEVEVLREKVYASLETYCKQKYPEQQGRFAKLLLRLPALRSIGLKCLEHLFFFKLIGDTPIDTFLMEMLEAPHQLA

[5] = biological target: T5, Retinoic acid receptor RXR-alpha (Homo sapiens, UniProt P19793); experiment: Inhibition of [3H]9-cis-RA binding to RXR alpha receptor
T5 sequence (P19793 whole entry): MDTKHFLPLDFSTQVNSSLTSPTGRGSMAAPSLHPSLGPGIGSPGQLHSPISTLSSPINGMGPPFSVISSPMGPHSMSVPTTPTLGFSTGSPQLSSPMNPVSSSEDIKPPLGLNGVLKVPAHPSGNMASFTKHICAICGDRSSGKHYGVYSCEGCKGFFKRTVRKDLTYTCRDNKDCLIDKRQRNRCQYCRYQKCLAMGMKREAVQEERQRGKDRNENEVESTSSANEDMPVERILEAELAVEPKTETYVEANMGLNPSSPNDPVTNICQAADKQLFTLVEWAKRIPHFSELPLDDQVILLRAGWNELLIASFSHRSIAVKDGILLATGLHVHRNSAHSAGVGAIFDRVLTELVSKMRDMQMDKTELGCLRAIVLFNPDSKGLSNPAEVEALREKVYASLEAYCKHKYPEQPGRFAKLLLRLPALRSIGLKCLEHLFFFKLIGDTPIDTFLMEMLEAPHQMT

[6] = biological target: T5, Retinoic acid receptor RXR-alpha; experiment: Transcriptional activation in CV-1 cells expressing retinoid X receptor RXR alpha; format: functional, cell-based
[7] = biological target: T6, Retinoic acid receptor beta (Homo sapiens, UniProt P10826); experiment: Inhibition of [3H]ATRA binding to RAR beta receptor
T6 sequence (P10826 whole entry): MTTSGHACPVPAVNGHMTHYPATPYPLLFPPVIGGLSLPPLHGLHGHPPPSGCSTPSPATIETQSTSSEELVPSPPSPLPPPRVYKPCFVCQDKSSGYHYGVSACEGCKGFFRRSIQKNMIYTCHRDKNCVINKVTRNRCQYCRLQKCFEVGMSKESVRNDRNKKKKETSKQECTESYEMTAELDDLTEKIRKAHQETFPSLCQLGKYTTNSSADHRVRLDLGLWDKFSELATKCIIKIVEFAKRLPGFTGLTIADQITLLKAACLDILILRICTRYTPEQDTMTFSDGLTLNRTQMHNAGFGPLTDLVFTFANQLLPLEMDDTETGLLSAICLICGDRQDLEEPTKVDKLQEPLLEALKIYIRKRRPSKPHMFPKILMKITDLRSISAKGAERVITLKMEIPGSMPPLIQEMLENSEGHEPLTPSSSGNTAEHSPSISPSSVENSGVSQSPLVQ

[8] = biological target: T2, Retinoic acid receptor gamma; experiment: Inhibition of [3H]ATRA binding to RAR gamma receptor
[9] = biological target: T1, Retinoic acid receptor RXR-gamma; experiment: Transcriptional activation in CV-1 cells expressing retinoid X receptor RXR gamma; format: functional, cell-based
[10] = biological target: T3, Retinoic acid receptor alpha; experiment: Transcriptional activation in CV-1 cells expressing retinoic acid receptor RAR alpha; not active; format: functional, cell-based
[11] = biological target: T4, Retinoic acid receptor RXR-beta; experiment: Transcriptional activation in CV-1 cells expressing retinoid X receptor RXR beta; format: functional, cell-based
[12] = biological target: T6, Retinoic acid receptor beta; experiment: Transcriptional activation in CV-1 cells expressing retinoic acid receptor RAR beta; format: functional, cell-based
[13] = biological target: T6, Retinoic acid receptor beta; conditions: cv-1
[14] = biological target: T2, Retinoic acid receptor gamma; conditions: cv-1
[15] = biological target: T3, Retinoic acid receptor alpha; experiment: Transcriptional activation in CV-1 cells expressing retinoic acid receptor RAR alpha; inactive; format: functional, cell-based

Ki [1] [nM]	EC50 [2] [nM]	Ki [3] [nM]	Ki [4] [nM]	Ki [5] [nM]	EC50 [6] [nM]	Ki [7] [nM]	Ki [8] [nM]	EC50 [9] [nM]	EC50 [10]	EC50 [11] [nM]	EC50 [12] [nM]	EC50 [13]	EC50 [14]	EC50 [15]	SMILES
6	399	> 1000	7	3	23	> 1000	> 1000	24	Not Active	19	287	–	–	–	CC(/C=C/C1(c2ccc3c(c2)C(C)(C)CCC3(C)C)CC1)=C\C(=O)O
290	–	944	199	150	–	909	887	404	Not Active	486	–	–	–	–	C=C(c1ccc(C(=O)O)cc1)c1ccc2c(c1)C(C)(C)CCC2(C)C

The next lines start with the molecule.

SMILES	Ki [1] [nM]	EC50 [2] [nM]	Ki [3] [nM]	Ki [4] [nM]	Ki [5] [nM]	EC50 [6] [nM]	Ki [7] [nM]	Ki [8] [nM]	EC50 [9] [nM]	EC50 [10]	EC50 [11] [nM]	EC50 [12] [nM]	EC50 [13]	EC50 [14]	EC50 [15]
CC(/C=C/C1(c2cc3c(cc2C)C(C)(C)CCC3(C)C)CCCC1)=C\C(=O)O	> 1000	1780	> 1000	> 1000	> 1000	2520	> 1000	> 1000	2710	Not Active	2000	809	–	–	–
CC(/C=C/C1(c2ccc3c(c2)C(C)(C)CCC3(C)C)CCCC1)=C\C(=O)O	172	–	> 1000	124	92	51	> 1000	> 1000	192	Not Active	127	–	Not Active	Not Active	–
CC(/C=C/C1(c2cc3c(cc2C)C(C)(C)CCC3(C)C)CC1)=C\C(=O)O	5	–	> 1000	4	4	–	> 1000	> 1000	7	–	13	–	Not Active	–	Not Active
